The target of the assay is T1, PD-1/PD-L1 (Homo sapiens, UniProt Q9NZQ7).
T1 construct: TVMV protease site (C); made in house; host or cells: HEK293T cells
Nature of the assay: PD-1/PD-L1 Homogenous Time-Resolved Fluorescence (HTRF) binding assay. Conditions: PD-L1-His 10 nM, PD-1-Ig 20 nM; read-out: HTRF IC50. The source says: The ability of the compounds of formula (I) to bind to PD-L1 was investigated using a PD-1/PD-L1 Homogenous Time-Resolved Fluorescence (HTRF) binding assay.
The interaction of PD-1 and PD-L1 can be assessed using soluble, purified preparations of the extracellular domains of the two proteins. The PD-1 and PD-L1 protein extracellular domains were expressed as fusion proteins with detection tags, for PD-1, the tag was the Fc portion of Immunoglobulin (PD-1-Ig) and for PD-L1 it was the 6 histidine motif (PD-L1-His). All binding studies were performed in an HTRF assay buffer consisting of dPBS supplemented with 0.1% […] bovine serum albumin and 0.05% (v/v) Tween-20. For the h/PD-L1-His binding assay, inhibitors were pre-incubated with PD-L1-His (10 nM final) for 15 m in 4 μl of assay buffer, followed by addition of PD-1-Ig (20 nM final) in 1 μl of assay buffer and further incubation for 15 m. HTRF detection was achieved using europium crypate-labeled anti-Ig (1 nM final) and allophycocyanin (APC) labeled anti-His (20 nM final). Antibodies were diluted in HTRF detection buffer and 5 μl was dispensed on top of the binding reaction. The reaction mixture was allowed to equilibrate for 30 minutes and the resulting signal (665 nm/620 nm ratio) was obtained using an EnVision fluorometer. Additional binding assays were established between the human proteins PD-1-Ig/PD-L2-His (20 & 5 nM, respectively) and CD80-His/PD-L1-Ig (100 & 10 nM, respectively).
Recombinant Proteins: Human PD-1 (25-167) with a C-terminal human Fc domain of immunoglobulin G (Ig) epitope tag [hPD-1 (25-167)-3S-IG] and human PD-L1 (18-239) with a C-terminal His epitope tag [hPD-L1(18-239)-TVMV-His] were expressed in HEK293T cells and purified sequentially by ProteinA affinity chromatography and size exclusion chromatography. Human PD-L2-His and CD80-His was obtained through commercial sources.
Table 1 lists the IC50 values for representative examples of this disclosure measured in the PD-1/PD-L1 Homogenous Time-Resolved Fluorescence (HTRF) binding assay.
(In general: Time-resolved FRET reads energy transfer from a long-lived donor to a nearby acceptor.)

For orientation: IC50 means the concentration needed to halve the response being measured.

Positions of bridges follow the written chain, without caps; N, C: chain ends. Non-standard residues stand in square brackets, D forms with d. Residues, ends and D or L forms follow the SMILES beside them. *: point of attachment. X21 = CC[C@H]1[C@@H](O)[C@@H]2[C@H](CC[C@]3(C)[C@@H]([C@H](C)CCC(=O)*)CC[C@@H]23)[C@@]2(C)CC[C@@H](O)C[C@@H]12; X24 = C[C@H](CCC(=O)*)[C@H]1CC[C@H]2[C@@H]3[C@H](O)[C@H](O)[C@@H]4C[C@H](O)CC[C@]4(C)[C@H]3CC[C@]12C; X23 = C[C@H](CCC(=O)*)[C@H]1CC[C@H]2[C@@H]3C(=O)[C@H](O)[C@@H]4C[C@H](O)CC[C@]4(C)[C@H]3CC[C@]12C; X10 = C[C@H](CCC(=O)*)[C@H]1CC[C@H]2[C@@H]3C(=O)C[C@@H]4C[C@H](O)CC[C@]4(C)[C@H]3CC(=O)[C@]12C; X19 = C[C@H](CCC(=O)*)[C@H]1CC[C@H]2[C@@H]3CC(=O)[C@@H]4C[C@H](O)CC[C@]4(C)[C@H]3CC[C@]12C; X33 = C[C@H](CCC(=O)*)[C@H]1CC[C@H]2[C@@H]3C(=O)C[C@@H]4C[C@H](O)CC[C@]4(C)[C@H]3CC[C@]12C; Trp(1-CH2COOH) = N[C@@H](Cc1cn(CC(=O)O)c2ccccc12)C(=O)O; Hyp = O=C(O)[C@@H]1C[C@@H](O)CN1; NMeNle = CCCC[C@H](NC)C(=O)O; NMeA = CN[C@@H](C)C(=O)O; Dab = NCC[C@H](N)C(=O)O; Dap = NC[C@H](N)C(=O)O

T1 sequence (Q9NZQ7 18-239): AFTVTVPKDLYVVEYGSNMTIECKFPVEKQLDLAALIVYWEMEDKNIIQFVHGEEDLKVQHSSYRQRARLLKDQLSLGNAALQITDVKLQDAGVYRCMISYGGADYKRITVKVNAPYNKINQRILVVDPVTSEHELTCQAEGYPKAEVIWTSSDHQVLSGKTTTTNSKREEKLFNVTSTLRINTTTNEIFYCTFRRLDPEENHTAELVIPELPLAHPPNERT

`CCCC[C@H]1C(=O)N(C)[C@@H](CCCC)C(=O)N[C@@H](CC(C)C)C(=O)N[C@H](C(=O)NCC(N)=O)CSCC(=O)N[C@@H](Cc2ccc(O)cc2)C(=O)N(C)[C@@H](C)C(=O)N[C@@H](CC(N)=O)C(=O)N2CCC[C@H]2C(=O)N[C@@H](CNC(=O)CC[C@@H](C)[C@H]2CC[C@H]3[C@@H]4[C@H](O)[C@H](CC)[C@@H]5C[C@H](O)CC[C@]5(C)[C@H]4CC[C@]23C)C(=O)N[C@@H](CC(C)C)C(=O)N2C[C@H](O)C[C@H]2C(=O)N[C@@H](Cc2c[nH]c3ccccc23)C(=O)N[C@@H](CCNC(=O)CC[C@@H](C)[C@H]2CC[C@H]3[C@@H]4[C@H](O)[C@H](CC)[C@@H]5C[C@H](O)CC[C@]5(C)[C@H]4CC[C@]23C)C(=O)N[C@@H](Cc2cn(CC(=O)O)c3ccccc23)C(=O)N1C` [Example 1014] ({CH2CO}-Y[NMeA]NP[Dap](X21)L[Hyp]W[Dab](X21)[Trp(1-CH2COOH)][NMeNle][NMeNle]LCG-NH2; thioether N-14): the IC50 was 340 nM.
As for `CCCC[C@H]1C(=O)N(C)[C@@H](CCCC)C(=O)N[C@@H](CC(C)C)C(=O)N[C@H](C(=O)NCC(N)=O)CSCC(=O)N[C@@H](Cc2ccc(O)cc2)C(=O)N(C)[C@@H](C)C(=O)N[C@@H](CC(N)=O)C(=O)N2CCC[C@H]2C(=O)N[C@@H](CNC(=O)CC[C@@H](C)[C@H]2CC[C@H]3[C@@H]4C(=O)[C@H](O)[C@@H]5C[C@H](O)CC[C@]5(C)[C@H]4CC[C@]23C)C(=O)N[C@@H](CC(C)C)C(=O)N2C[C@H](O)C[C@H]2C(=O)N[C@@H](Cc2c[nH]c3ccccc23)C(=O)N[C@@H](CCNC(=O)CC[C@@H](C)[C@H]2CC[C@H]3[C@@H]4[C@H](O)[C@H](O)[C@@H]5C[C@H](O)CC[C@]5(C)[C@H]4CC[C@]23C)C(=O)N[C@@H](Cc2cn(CC(=O)O)c3ccccc23)C(=O)N1C` [Example 1015] ({CH2CO}-Y[NMeA]NP[Dap](X23)L[Hyp]W[Dab](X24)[Trp(1-CH2COOH)][NMeNle][NMeNle]LCG-NH2; thioether N-14), the IC50 is 9.3 nM.
`CCCC[C@H]1C(=O)N(C)[C@@H](CCCC)C(=O)N[C@@H](CC(C)C)C(=O)N[C@H](C(=O)NCC(N)=O)CSCC(=O)N[C@@H](Cc2ccc(O)cc2)C(=O)N(C)[C@@H](C)C(=O)N[C@@H](CC(N)=O)C(=O)N2CCC[C@H]2C(=O)N[C@@H](CNC(=O)CC[C@@H](C)[C@H]2CC[C@H]3[C@@H]4C(=O)C[C@@H]5C[C@H](O)CC[C@]5(C)[C@H]4CC[C@]23C)C(=O)N[C@@H](CC(C)C)C(=O)N2C[C@H](O)C[C@H]2C(=O)N[C@@H](Cc2c[nH]c3ccccc23)C(=O)N[C@@H](CCNC(=O)CC[C@@H](C)[C@H]2CC[C@H]3[C@@H]4C(=O)C[C@@H]5C[C@H](O)CC[C@]5(C)[C@H]4CC[C@]23C)C(=O)N[C@@H](Cc2cn(CC(=O)O)c3ccccc23)C(=O)N1C` [Example 1016] ({CH2CO}-Y[NMeA]NP[Dap](X33)L[Hyp]W[Dab](X33)[Trp(1-CH2COOH)][NMeNle][NMeNle]LCG-NH2; thioether N-14): the IC50 is 12 nM.
Under `CCCC[C@H]1C(=O)N(C)[C@@H](CCCC)C(=O)N[C@@H](CC(C)C)C(=O)N[C@H](C(=O)NCC(N)=O)CSCC(=O)N[C@@H](Cc2ccc(O)cc2)C(=O)N(C)[C@@H](C)C(=O)N[C@@H](CC(N)=O)C(=O)N2CCC[C@H]2C(=O)N[C@@H](CNC(=O)CC[C@@H](C)[C@H]2CC[C@H]3[C@@H]4CC(=O)[C@@H]5C[C@H](O)CC[C@]5(C)[C@H]4CC[C@]23C)C(=O)N[C@@H](CC(C)C)C(=O)N2C[C@H](O)C[C@H]2C(=O)N[C@@H](Cc2c[nH]c3ccccc23)C(=O)N[C@@H](CCNC(=O)CC[C@@H](C)[C@H]2CC[C@H]3[C@@H]4CC(=O)[C@@H]5C[C@H](O)CC[C@]5(C)[C@H]4CC[C@]23C)C(=O)N[C@@H](Cc2cn(CC(=O)O)c3ccccc23)C(=O)N1C` [Example 1017] ({CH2CO}-Y[NMeA]NP[Dap](X19)L[Hyp]W[Dab](X19)[Trp(1-CH2COOH)][NMeNle][NMeNle]LCG-NH2; thioether N-14) stands 15 nM; under `CCCC[C@H]1C(=O)N(C)[C@@H](CCCC)C(=O)N[C@@H](CC(C)C)C(=O)N[C@H](C(=O)NCC(N)=O)CSCC(=O)N[C@@H](Cc2ccc(O)cc2)C(=O)N(C)[C@@H](C)C(=O)N[C@@H](CC(N)=O)C(=O)N2CCC[C@H]2C(=O)N[C@@H](CNC(=O)CC[C@@H](C)[C@H]2CC[C@H]3[C@@H]4C(=O)C[C@@H]5C[C@H](O)CC[C@]5(C)[C@H]4CC(=O)[C@]23C)C(=O)N[C@@H](CC(C)C)C(=O)N2C[C@H](O)C[C@H]2C(=O)N[C@@H](Cc2c[nH]c3ccccc23)C(=O)N[C@@H](CCNC(=O)CC[C@@H](C)[C@H]2CC[C@H]3[C@@H]4C(=O)C[C@@H]5C[C@H](O)CC[C@]5(C)[C@H]4CC(=O)[C@]23C)C(=O)N[C@@H](Cc2cn(CC(=O)O)c3ccccc23)C(=O)N1C` [Example 1018] ({CH2CO}-Y[NMeA]NP[Dap](X10)L[Hyp]W[Dab](X10)[Trp(1-CH2COOH)][NMeNle][NMeNle]LCG-NH2; thioether N-14), 6.2 nM.

Values taken from patent US20230183292A1, “IMMUNOMODULATORS” (priority 2020, published 2023).
